± gives the expanded uncertainty stated by the source.
Conditions: Liquid

Structure (SMILES)	vapor or sublimation pressure (273.15 K) [kPa]	vapor or sublimation pressure (278.15 K) [kPa]	vapor or sublimation pressure (283.15 K) [kPa]	vapor or sublimation pressure (293.15 K) [kPa]	vapor or sublimation pressure (303.15 K) [kPa]	vapor or sublimation pressure (313.15 K) [kPa]
C=CC [propene]	586 ± 2.8	678.5 ± 3	780.8 ± 3.3	1019 ± 3.8	1307.6 ± 4.6	1652.2 ± 5.6
CCC [propane]	474 ± 2.6	550.8 ± 2.8	636 ± 2.9	836.2 ± 3.4	1077.6 ± 4	1368 ± 4.7

From the NIST ThermoML archive (doi:10.1016/j.fluid.2006.03.009)
